{
  "source": "paper PMC8333062",
  "about": "“Chemical tools for epichaperome-mediated interactome dysfunctions of the central nervous system” (Nature Communications, 2021)",
  "key": {"[1]": {"assay": "PET biodistribution in human patients", "format": "in vivo", "conditions": "human, in vivo", "excerpt": "To evaluate the brain permeability of PU-HZ151 into the human brain, we produced the [^124I]-labeled derivative and performed serial PET imaging studies of human patients (n = 3; NCT03371420), and derived time-activity (i.e. standard uptake values (SUV) versus time post-administration) curves for the brain and various other tissues (Fig. 2b). PET data obtained for [^124I]-labeled PU-H71 (NCT01269593 and ref. [39]) were used for comparison. […] The AUC values recorded for [^124I]-PU-HZ151 in the human brain post-single injection are at par with what was measured in the human muscle and lung, supportive of uptake of PU-HZ151 into the human brain (Fig. 2b). Magnetic resonance imaging (MRI), by offering structural and soft tissue resolution, confirmed the presence of PU-HZ151 in the brain tissue (Fig. 2d). […] The secondary outcome of the trial was to measure adverse events following administration of the probe. Safety of [^124I]-PU-HZ151 in human subjects was assessed by evaluation of the incidence, nature, and severity of adverse events and serious adverse events (Supplementary Note 2).\n[^124I]-PU-HZ151 and [^124I]-PU-H71 were synthesized in-house by the institutional cyclotron core facility at high specific activity. Analyses of the epichaperome by positron emission tomography (PET-CT) were performed as previously reported. In brief, research PET-CT was performed using an integrated PET-CT scanner (Discovery DSTE, GE Healthcare). CT scans for attenuation correction and anatomic coregistration were performed before tracer injection. Patients received 5 mCi of [^124I]-PU-HZ151 or [^124I]-PU-H71 by peripheral vein over 2 min. PET data were reconstructed using a standard ordered subset expected maximization iterative algorithm. Emission data were corrected for scatter, attenuation, and decay. PET scans were performed 0.5, 3, and 24 h after tracer administration. Numbers in the scale bar indicate upper and lower standardized uptake value (SUV) thresholds that define pixel intensity on PET images. SUV is a pixel value, derived from PET measurements of in vivo radioactivity, quantified as the fraction of the radioactive dose injected found in a cubic centimeter of measured tissue multiplied (ie, normalized) by patient body weight (grams). Maximum Intensity Projection (MIP) 3D images were constructed from the voxels with maximum intensity that fell in the way of parallel rays traced from the viewpoint to the plane of projection. At each pixel the highest data value encountered along the corresponding viewing ray was determined. MRI scans were obtained as part of routine clinical care using hardware and standard data acquisition and processing methods. MRI was obtained using a 1.5T magnet (Signa HDxt, GE Healthcare, Milwaukee, WI). […] Gadopentetate dimeglumine (Magnevist, HealthCare Pharmaceuticals Inc.) was injected though a peripheral angiocatheter at a standard dose (0.2 mL kg^−1 body weight, 40 mL, 2 cc s^−1). For precise localization of tracer uptake to specific neuroanatomical structures, PET brain images were fused to MRI brain images using the Integrated Registration application of the AW Suite software package (GE Healthcare, Milwaukee, Wisconsin, USA)."}, "[2]": {"assay": "Plasma pharmacokinetics in human patients", "format": "in vivo", "conditions": "order Patient#1, #2, #3, Mean", "description": "For the PET study, two intravenous catheters (heparin-locked) were placed in the subject for radiopharmaceutical administration and for blood sampling. […] For [^124I]-PU-HZ151 injection and blood sampling, separate peripheral intravenous lines were placed. […] For quantification of radioprobe clearance and metabolism, plasma samples were radioassayed by well counter and radioHPLC using standard techniques. […] Well counting obtained a minimum of 10,000 counts per specimen correcting for background activity and radioactive decay from time of tracer injection. An I-124 standard was assayed on the well counter to obtain a calibration factor for converting sample scintillation count rates (in cpm) to millicurie (mCi) of activity. […] This value was multiplied by the patient body weight (g) to convert to standard uptake values (SUV) for comparison with tissue SUV values measured by PET, also calculated as the ID per mL tissue volume, normalized to patient body weight (g). Blood and plasma concentration data were separately plotted versus time."}, "[3]": {"assay": "Adverse events in human patients (NCT03371420)", "format": "in vivo", "conditions": "single microdose iv"}, "lung carcinoma": {"tested_on": "lung carcinoma", "assay": "PET in a lung cancer patient", "format": "in vivo, human"}, "[4]": {"tested_on": "intracranial MDA-MB-468 tumors", "assay": "PET of intracranial tumors", "format": "in vivo, mouse", "set-up": "radioactivity, Blood / radioactivity, Brain, normal / radioactivity, Tumor - intracranial: unit: %ID/g (percent injected dose per gram)", "conditions": "for radioactivity, Blood / radioactivity, Brain, normal / radioactivity, Tumor - intracranial: mean n=5", "experimental": "We next investigated if the CNS-directed epichaperome probes detect epichaperome positivity and engage the target in brain tumors. MDA-MB-468 is a triple-negative breast cancer cell line, an aggressive breast cancer subtype with high propensity of metastasizing to the brain. We therefore initiated our studies with intracranial MDA-MB-468 tumors. We imaged the real-time whole-body distribution of [^124I]-labeled PU-HZ151 ([^124I]-PU-HZ151) between 1 h and 72 h to observe that PU-HZ151 was evenly distributed throughout the body with brain exposure equaling that of other tissues and non-metabolizing organs (see PET image at 1 h, Fig. 4a). A rapid clearance from HSP90 (present throughout the brain) but not epichaperome (present only in the tumor), provided unambiguous visualization and quantitation of epichaperome positivity through PET imaging. […] We also confirmed target positivity, and specific target and probe co-localization, through radiography and associated hematoxylin and eosin staining of brain tissue (Fig. 4c–e).\n(§1) Orthotopic GBM xenografts in mice were established by injection of 5 × 10^5 cells in 2 μL PBS. For PET analyses, GSCs were injected into the striatum. Boreholes were made using a small hand drill. Mice were imaged with MRI (typically ~ 2–3 weeks after injection), and – if tumors were visible on MRI – they were imaged by micro-PET using the [^124I]-radiolabeled PU-HZ151. When mice started showing symptoms of progressing GBM, they received a microdose of [^124I]-PU-HZ151 and serial PET scans were performed at 20 mins, 6, 24, 48, 72, and 96 h post tracer administration using a dedicated small-animal PET scanner (Focus 120 microPET; Siemens Medical Solutions, USA, formerly Concorde Microsystems, Knoxville, TN). Mice were maintained under 2% isoflurane (Baxter Healthcare, Deerfield, IL) anesthesia in oxygen at 2 L min^−1 during the entire scanning period. To reduce the thyroid uptake of free iodide arising from metabolism of tracer, mice received 0.01% potassium iodide solution in their drinking water starting 48 h prior to tracer administration. For PET imaging, each mouse was administered [^124I]-PU-HZ151 (15 µCi g^−1, 3 µCi µL^−1 in saline, Hospira, 0.9% sodium chloride in water) via the tail vein or ip. Approximately 5 min prior to PET acquisition, mice were anesthetized by inhalation of a mixture of isoflurane (Baxter Healthcare, Deerfield, IL, USA; 2% isoflurane, 2 L min^−1 medical air) and positioned on the scanner bed. Anesthesia was maintained using a 1% isoflurane-O2 mixture. PET data for each mouse was recorded using static scans of 15 min and acquired at the indicated times post injection. Quantification and %ID g^−1 values were calculated by manually drawing regions of interests in three different frames and determining the average values using ASI Pro VM™ MicroPET Analysis software (Siemens Medical Solutions, Knoxville, TX)."}, "GBM#19": {"tested_on": "GBM#19", "assay": "PET of intracranial tumors", "format": "in vivo, mouse", "conditions": "microdose iv", "experimental": "(§2) To test if our probes can detect and differentiate in vivo the epichaperome-dependent tumors from those that are not, we next performed intracranial xenotransplantation of GSCs from epichaperome-high (GSC#8), -medium (GSC#7; GSC#19) and -negative (GSC#5) specimens. For comparison we used intracranially xenotransplanted MDA-MB-468 tumors (Fig. 7a).\nas §1"}, "GBM#5": {"tested_on": "GBM#5", "assay": "PET of intracranial tumors", "format": "in vivo, mouse", "conditions": "microdose iv", "experimental": "as §2, §1"}, "GBM#7": {"tested_on": "GBM#7", "assay": "PET of intracranial tumors", "format": "in vivo, mouse", "conditions": "microdose iv", "experimental": "as §2, §1"}, "GBM#8": {"tested_on": "GBM#8", "assay": "PET of intracranial tumors", "format": "in vivo, mouse", "conditions": "microdose iv", "experimental": "as §2, §1"}, "[5]": {"tested_on": "intracranial MDA-MB-468 tumors", "assay": "PET of intracranial tumors", "format": "in vivo, mouse", "set-up": "unit: %ID/g (percent injected dose per gram)", "conditions": "96 h, mean n=5"}},
  "note": "“And” between values parts separate entries of the source, which are not always exact repeats. Equal values may be shown once.",
  "data": [
    {"smiles": "CC(C)(C)CNCCn1c(Sc2cc3c(cc2[124I])OCO3)nc2c(N)ncnc21", "note": "[[124I]-PU-HZ151]", "values": [
      {"measurement": "biological half-life in normal brain tissue", "setting": "[1]", "value": "less than 0.5 hours"},
      {"measurement": "2nd Component Half-time", "setting": "[2]", "value": "1.87 h and 2.97 h and 2.35 h"},
      {"measurement": "2nd Component Half-time", "setting": "[2]; then text value", "value": "1.87 h and 2.97 h and 2.2 h and 2.35 h and 2.35 ± 0.563 h"},
      {"measurement": "area under the curve (AUC)", "setting": "[2]; plasma", "value": "0.0225 (%ID g-1)h and 0.0199 (%ID g-1)h and 0.0127 (%ID g-1)h and 0.0184 (%ID g-1)h"},
      {"measurement": "probe-related toxicity", "setting": "[3]", "value": "No radioiodinated probe-related toxicity was evident"},
      {"measurement": "radioactivity, Brain-gray", "setting": "lung carcinoma; 0.5 h", "value": 1.16, "unit": "SUV"},
      {"measurement": "radioactivity, Lung", "setting": "lung carcinoma; 0.5 h", "value": 0.56, "unit": "SUV"},
      {"measurement": "radioactivity, Muscle", "setting": "lung carcinoma; 0.5 h", "value": 0.72, "unit": "SUV"},
      {"measurement": "radioactivity, Tumor", "setting": "lung carcinoma; 0.5 h", "value": 2.52, "unit": "SUV"},
      {"measurement": "radioactivity, Brain-gray", "setting": "lung carcinoma; 3 h", "value": 0.41, "unit": "SUV"},
      {"measurement": "radioactivity, Lung", "setting": "lung carcinoma; 3 h", "value": 0.29, "unit": "SUV"},
      {"measurement": "radioactivity, Muscle", "setting": "lung carcinoma; 3 h", "value": 0.32, "unit": "SUV"},
      {"measurement": "radioactivity, Tumor", "setting": "lung carcinoma; 3 h", "value": 2.1, "unit": "SUV"},
      {"measurement": "radioactivity, Brain-gray", "setting": "lung carcinoma; 24 h", "value": 0.03, "unit": "SUV"},
      {"measurement": "radioactivity, Lung", "setting": "lung carcinoma; 24 h", "value": 0.07, "unit": "SUV"},
      {"measurement": "radioactivity, Muscle", "setting": "lung carcinoma; 24 h", "value": 0.09, "unit": "SUV"},
      {"measurement": "radioactivity, Tumor", "setting": "lung carcinoma; 24 h", "value": 0.79, "unit": "SUV"},
      {"measurement": "radioactivity, Blood", "setting": "[4]; 1 h", "value": 1.8445},
      {"measurement": "radioactivity, Brain, normal", "setting": "[4]; 1 h", "value": 0.4287},
      {"measurement": "radioactivity, Tumor - intracranial", "setting": "[4]; 1 h", "value": 2.4287},
      {"measurement": "radioactivity, Blood", "setting": "[4]; 2 h", "value": 0.7280},
      {"measurement": "radioactivity, Brain, normal", "setting": "[4]; 2 h", "value": 0.0550},
      {"measurement": "radioactivity, Blood", "setting": "[4]; 6 h", "value": 0.2100},
      {"measurement": "radioactivity, Brain, normal", "setting": "[4]; 6 h", "value": 0.1400},
      {"measurement": "radioactivity, Tumor - intracranial", "setting": "[4]; 6 h", "value": 0.6541},
      {"measurement": "radioactivity, Blood", "setting": "[4]; 24 h", "value": 0.0110},
      {"measurement": "radioactivity, Brain, normal", "setting": "[4]; 24 h", "value": 0.0010},
      {"measurement": "radioactivity, Tumor - intracranial", "setting": "[4]; 24 h", "value": 0.1284},
      {"measurement": "radioactivity, Blood", "setting": "[4]; 48 h", "value": 0.0060},
      {"measurement": "radioactivity, Brain, normal", "setting": "[4]; 48 h", "value": 0.0000},
      {"measurement": "radioactivity, Tumor - intracranial", "setting": "[4]; 48 h", "value": 0.0885},
      {"measurement": "radioactivity, Blood", "setting": "[4]; 72 h", "value": 0.0040},
      {"measurement": "radioactivity, Brain, normal", "setting": "[4]; 72 h", "value": 0.0000},
      {"measurement": "radioactivity, Tumor - intracranial", "setting": "[4]; 72 h", "value": 0.0351},
      {"measurement": "radioactivity, Brain, normal", "setting": "[4]; 96 h", "value": 0.0000},
      {"measurement": "AUC^tumor/blood", "setting": "[4]; PET, microdose iv", "value": 1303},
      {"measurement": "AUC^tumor/blood", "setting": "GBM#19", "value": 444},
      {"measurement": "AUC^tumor/blood", "setting": "GBM#5", "value": 143},
      {"measurement": "AUC^tumor/blood", "setting": "GBM#7", "value": 893},
      {"measurement": "AUC^tumor/blood", "setting": "GBM#8", "value": 80},
      {"measurement": "radioactivity, Blood", "setting": "[5]", "value": 0.0050}
    ]}
  ]
}
